# From US20220401483A1, “COMBINATION OF A T CELL THERAPY AND (S)-3-[4-(4-MORPHOLIN-4-YLMETHYL-BENZYLOXY)-L-OXO-L,3-DIHYDRO-ISOINDOL-2-YL]-PIPERIDINE-2,6-DIONE” (Juno Therapeutics, Inc., priority 2019, published 2022)
# Key:
# Format in all cases: cell-based, human
# RL tumor spheroids = assay: RL tumor spheroid model with anti-CD19 CAR T cells; details: Day 4; 1 μM Compound B, 0.01 μM or 0.1 μM Compound A
# Method: Cytolytic activity was also assessed in a spheroid model. About 5,000 RL cells were plated 48 hours prior to addition of 5,000 anti-CD19 CAR T cells (1:1 E:T ratio). Anti-CD19 CAR T cells were co-cultured with RL tumor spheroids, in the presence of Compound B (1 μM) or Compound A (0.001 μM, 0.01 μM or 0.1 μM)).
# [1] = system: Raji or Granta-519 lymphoma cells; assay: Cytolytic assay of CAR T cells treated 3 days, Raji or Granta-519 target cells; details: 1 nM, 10 nM or 100 nM, 3 days treatment
# Method: After 3 days of treatment with Compound A, anti-CD19 CAR T cells were co-cultured with Raji or Granta-519 lymphoma cells using a cytolytic assay. To assess cytolytic activity, the target cells were labeled with NucLight Red (NLR) to permit tracking by fluorescent microscopy. Killing activity was assessed by measuring the loss of viable target cells over 200 hours, as determined by loss of fluorescent signal over time by kinetic fluorescence microscopy (using the INCUCYTE® Live Cell Analysis System, Essen Bioscience). Tumor cell numbers were normalized to time zero and measured over time (mean±SEM).
# FIG. 7B depicts the tumor cell numbers of anti-CD19 CAR T cells treated with 1 nM, 10 nM, or 100 nM Compound A as compared with vehicle control (no Compound A) and tumor only.
# [2] = system: K562.CD19, Raji, Granta-519 cells; assay: Cytolytic activity of chronically stimulated CAR T cells with rescue treatment, CD19+ tumor cells; details: 0.001 μM or 0.01 μM, E:T 1:1, vs control
# Method: Anti-CD19 CAR-expressing T cells from three donors, produced as described in Example 1, were stimulated under conditions to induce chronic stimulation (to produce hypofunctional, exhausted T cells) and then were subsequently treated (rescue) with (S)-3-[4-(4-morpholin-4-ylmethyl-benzyloxy)-1-oxo-1,3-dihydro-isoindol-2-yl]-piperidine-2,6-dione (Compound A), or a vehicle control. Long-term, chronic stimulation was carried out by stimulation of CAR T cells with 30 μg/mL plate-bound anti-idiotypic (anti-ID) antibody for 6 days, substantially as described in Example 3 but in the absence of Compound A. After the chronic stimulation, the CAR-T cells were rechallenged with CD19-expressing target cells in the presence of Compound A, and cytolytic activity or cytokine production was assessed.
# CAR T cells that had been stimulated for 6 days with anti-ID were co-cultured with CD19+ tumor cells at an effector to target (E:T) ratio of 1:1, in the presence of Compound A (0.001 μM or 0.01 μM). The assessed CD19+ tumor cells included K562 cells transduced with CD19 (K562.CD19), Raji cells or Granta-519 cells.
# RL cells = assay: Rescue of chronically stimulated CAR T cells cultured with RL cells; details: Compound B 1 μM, Compound A 0.001, 0.01 or 0.1 μM
# Method: The RL cells were further used to assess the ability of immunomodulatory compounds to rescue or reverse the anti-CD19 CAR T cells from exhaustion. Anti-CD19 CAR-expressing T cells were stimulated under conditions to induce chronic stimulation and then were subsequently treated (rescue) with Compound B (1 μM) or Compound A (0.001 μM, 0.01 μM or 0.1 μM), or a vehicle control. Long-term, chronic stimulation was carried out by stimulation of CAR T cells with 30 μg/mL plate-bound anti-idiotypic (anti-ID) antibody for 6 days, substantially as described in Example 3. After the chronic stimulation, the CAR-T cells were cultured with RL cells in the presence of Compound B or Compound A. Cytolytic activity was assessed over time by measuring tumor cell number in the culture.
# [3] = system: K562.CD19, Raji, Granta-519 cells; assay: Cytolytic activity of CAR T cells after chronic stimulation with concurrent treatment, rechallenge with CD19+ tumor cells; details: 0.001 μM or 0.01 μM, E:T 1:1, vs control
# Method: Anti-CD19 CAR-expressing T cells were produced substantially as described in Example 1. To subject cells to chronic stimulation conditions, the CAR+ T cells were stimulated with 30 μg/mL plate-bound anti-idiotypic (anti-ID) antibody (see e.g. WO2018/023100) for 6 days in the presence of (S)-3-[4-(4-morpholin-4-ylmethyl-benzyloxy)-1-oxo-1,3-dihydro-isoindol-2-yl]-piperidine-2,6-dione (Compound A) or a vehicle control, to induce chronic stimulation. After the 6-day culture period, the anti-CD19 CAR-expressing T cells were removed from culture and incubated with K562 cells transduced with CD19 (K562.CD19), Raji tumor cells, and Granta-519 tumor cells (to rechallenge the CAR-T cells) at an effector to target ratio of 2.5:1 unless otherwise indicated, in the presence of Compound A, at concentrations ranging from 0.001 μM to 10 μM, or vehicle control for up to 10 days. […] Cells were assessed at various times for cytolytic function, CAR T cell number and cytokine production.
# CAR T cells that had been stimulated for 6 days with anti-ID concurrently in the presence of Compound A (0.001 μM or 0.01 μM) were washed free of compound and co-cultured with CD19+ tumor cells at an effector to target (E:T) ratio of 1:1 in the absence of Compound A. The assessed CD19+ tumor cells included K562 cells transduced with CD19 (K562.CD19), Raji cells, or Granta-519 cells.
# [4] = system: A549.CD19 tumor spheroids; assay: A549.CD19 tumor spheroid model, rescue treatment of chronically stimulated CAR T cells
# Method: An A549.CD19 tumor spheroid model was further used to elucidate the T cell modulatory activity of the compounds. A549.CD19 tumor spheroid growth is insensitive to monotherapy treatment with the immunomodulatory compounds. CAR T cells that had been stimulated for 6 days with anti-ID were co-cultured by incubation with A549.CD19 tumor spheroids, in the presence of presence of Compound A (0.001 μM, 0.01 μM, or 0.1 μM). Averaged measurement of tumor spheroid size at Day 9 following co-culture with CAR-T cells was assessed. […] The number of CAR T cells in co-cultures with tumor spheroids, measured at day 5, were increased with treatment with Compound A (FIG. 5B).
# Cytokines (IFNγ, IL-2 and TNFalpha) were measured from supernatant of the chronically stimulated CAR T cells above that had been co-cultured for 5 days with CD19 tumor spheroids. The log 2 fold change compared to control cells (chronically stimulated cells that had not been concurrently treated with immunomodulatory compound) is shown in FIG. 5E.
smiles,measurement,setting,value
"O=C1CC[C@H](N2Cc3c(OCc4ccc(CN5CCOCC5)cc4)cccc3C2=O)C(=O)N1 [Compound A, (S)-3-[4-(4-morpholin-4-ylmethyl-benzyloxy)-1-oxo-1,3-dihydro-isoindol-2-yl]-piperidine-2,6-dione]",sensitivity of RL tumor spheroids to compound,RL tumor spheroids,sensitive
same,cytolytic activity against target cells,[1],improved
same,cytolytic activity (tumor cell number over time),[2],statistically significant improvement
same,"CAR T cell cytolytic activity, RL cell growth",RL cells,substantially improved
same,cytolytic activity (tumor cell number over time),[3],improved
same,number of CAR T cells in co-cultures with tumor spheroids,"[4]; day 5, 0.01 μM or 0.1 μM",increased
same,"CAR T cell cytolytic function, A549.CD19 spheroid growth","[4]; rescue, 0.001, 0.01 or 0.1 μM, Day 9",improved
same,IFNγ in co-culture supernatant,"[4]; rescue, 5 days co-culture with spheroids",statistically significant increase
